Earlier results in patent US20190328719A1, “METHODS OF TREATING DEVELOPMENTAL DISORDERS AND/OR SEIZURE DISORDERS WITH FLUPIRTINE” (Ovid Therapeutics Inc., priority 2016, published 2019).
Where a name gives a salt, the structure may show the parent alone. Read-outs that look alike come from different tables or passages of the source.

How the values were obtained:
[1] = cited from earlier work; for Cmax (without correction for Cmin): 14 days of administration
[2] = cited from earlier work
[3] = cited from earlier work; remark: listed apart in the source
[4] = patients with a history of drug abuse; cited from earlier work
[5] = three-month efficacy study, insomnia; cited from earlier work
[6] = cited from earlier work; for plasma elimination half-life: healthy young volunteers, single dose
[7] = cited from earlier work; remark: listed apart in the source
[8] = dose range 200-400 mg three times daily

CC(=O)[C@H]1CC[C@H]2[C@@H]3CC[C@H]4C[C@](C)(O)CC[C@]4(C)[C@H]3CC[C@]12C [ganaxolone]
Cmin ([1]; 50 mg group): 2.34 ng/mL | Cmin ([1]; 200 mg group): 23.79 ng/mL | Cmin ([1]; 500 mg group): 56.71 ng/mL | Cmax (without correction for Cmin) ([1]; 50 mg group): 32 ng/mL | Cmax (without correction for Cmin) ([1]; 200 mg group): 106 ng/mL | Cmax (without correction for Cmin) ([1]; 500 mg group): 376 ng/mL | AUC and Cmax with increasing dose ([1]; in vivo): linear and proportional increase | half-life ([1]; in vivo): about 20 hours | Cmax ([1]; single 900 mg dose): 293 ± 63.8 ng/mL

OC(c1ccccc1)(c1ccccc1)C1CCCCN1 (stereo not drawn) [pipradrol]
effects of high doses [2]: uncoordinated activity and ataxia, followed by tremors and clonic convulsions

CCOC(=O)Nc1ccc(NCc2ccc(F)cc2)cc1N [retigabine, N-[2-amino-4-(4-fluorobenzylamino)-phenyl] carbamic acid ethyl ester]
between-subject variability [3, 8]: 35-50% | linearity of pharmacokinetics [3, 8]: linear | elimination half-lives (t/2) ([3]; in vivo): 7 to 11 h | median plasma half-life ([3]; in vivo): 6 to 8 h | Absolute oral bioavailability ([3]; relative to an intravenous dose): approximately 60%

Oc1noc2c1CCNC2 [gaboxadol, 4,5,6,7-tetrahydroisoxazolo [5,4-c]pyridine-3-ol]
psychiatric adverse events [4]: steep increase in psychiatric adverse events | effects in sleep onset and sleep maintenance [5]: failed to show significant effects in sleep onset and sleep maintenance

CCOC(=O)Nc1ccc(NCc2ccc(F)cc2)nc1N [flupirtine]
time to steady-state plasma concentrations ([6]; 75 or 150 mg at 12 hour intervals): 2 days | plasma elimination half-life ([6]; intravenous): about 8.5 hours | plasma elimination half-life ([6]; oral): ~9.6 h | plasma elimination half-life ([6]; rectal): ~10.7 h | half-life following intravenous administration ([6]; intravenous): about 1.8 hours | relation of plasma concentrations to dose ([6]; range of 50 to 300 mg): linearly related to dose | Bioavailability ([6]; rectal dose, in comparison with intravenous flupirtine tartrate 80 mg): about 72.5% | time until it appears in the plasma ([6]; single oral dose 100 mg or 200 mg, healthy volunteers): 15 to 30 min | peak plasma concentration (Cmax) ([6]; single oral dose 100 mg): approximately 0.8 mg/L | peak plasma concentration (Cmax) ([6]; single oral dose 200 mg): ~2000 ng/mL | water solubility [7]: poorly water soluble

CCOC(=O)Nc1ccc(NCc2ccc(F)cc2)nc1N [flupirtine maleate]
Cmax ([6]; rectal, flupirtine maleate 150 mg): about 0.89 mg/L | water solubility ([7]; listed as maleate salt): water soluble
